These results are taken from patent US9951055B2, “Thiazole-based inhibitors of scavenger receptor BI” (THE BROAD INSTITUTE, INC., priority 2012, dated 2018).

Test [1] deals with T1, SR-BI (Mus musculus, UniProt Q61009).
T1 sequence (Q61009 1-509): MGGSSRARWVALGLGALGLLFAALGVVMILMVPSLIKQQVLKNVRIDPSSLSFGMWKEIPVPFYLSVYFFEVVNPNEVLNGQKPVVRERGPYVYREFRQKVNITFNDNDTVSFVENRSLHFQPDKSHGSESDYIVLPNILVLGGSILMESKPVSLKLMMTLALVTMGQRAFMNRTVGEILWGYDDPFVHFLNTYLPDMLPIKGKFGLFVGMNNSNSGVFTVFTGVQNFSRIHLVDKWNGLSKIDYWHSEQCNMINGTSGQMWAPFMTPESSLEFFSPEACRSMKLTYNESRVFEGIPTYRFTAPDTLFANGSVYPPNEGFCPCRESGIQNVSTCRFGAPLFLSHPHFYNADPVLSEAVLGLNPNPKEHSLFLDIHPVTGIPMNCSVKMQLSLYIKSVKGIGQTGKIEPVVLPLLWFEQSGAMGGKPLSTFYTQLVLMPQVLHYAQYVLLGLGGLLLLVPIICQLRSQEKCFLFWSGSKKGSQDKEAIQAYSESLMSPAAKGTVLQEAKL
The test is described as follows: HDL binding assay (Alexa 488 HDL). Also noted: expressed in transfected cells. The format is cell-based. The following applies: Alexa-488 labeled HDL particles. The method, then: HDL binding was assessed using Alexa Fluor 488-labeled HDL particles. For this assay, the Alexa 488 dye was covalently bound to apolipoprotein components of the HDL particle via primary amines; thus, no transfer of the fluorophore to cell membranes occurs. In this manner, direct binding of the HDL particles to SR-BI can be measured. As a positive control, BLT-1, which is known to increase binding of HDL to SR-BI, was used at 1 μM (12). It is possible that a compound can reduce binding of HDL to the receptor, and this would lead to a decrease in signal. This assay is used to characterize the mechanism of action of a particular compound; therefore, any outcome in the assay is acceptable. Data were normalized against DMSO and the positive control (1 μM BLT-1) in Genedata Assay Analyzer.

The target of test [2] is T2, murine SR-BI (Mus musculus, UniProt Q61009).
T2 construct: expressed in transfected cells; host or cells: ldlA[mSR-BI]; (CHO ldlA7 derivative lacking the LDL receptor)
T2 sequence (Q61009 1-509): T1 sequence (Q61009 1-509)
In words: Compound reversibility, cellular uptake of DiI from DiI-HDL. The following applies: 1 hr preincubation, then 0 or 4 hr incubation in the absence of compound; read-out: IC50, reversibility test (DiI uptake). Type of test: cell-based. The procedure:
Compound reversibility was tested by measuring the cellular uptake of DiI from DiI-HDL (all incubations at 37° C.) in ldlA7 cells that were stably transfected with cDNA encoding murine SR-BI. On day 0, 50,000 cells were plated in 96-well dishes per well (Costar, black with clear, flat bottom) in Ham's F12 medium containing 2 mM L-glutamine, 50 units/mL penicillin per 50 μg/mL streptomycin (medium A) supplemented with 5% (vol/vol) FBS and 0.25 mg/mL G418 (medium B). On day 2, the cells were washed twice with prewarmed (37° C.) medium A. The cells were then preincubated with the tested compounds in 200 μL per well of medium A plus 0.5% (wt/vol) BSA plus 0.5% (vol/vol) DMSO (medium C) for 1 hr. The 1 hr preincubation was followed by either a 0 or 4 hr incubation in medium C in the absence of compound. The cells were then incubated in medium C (200 μL per well) containing 10 μg protein per mL of DiI-HDL at 37° C. for 2 h to measure DiI uptake. […] Then 50 μL PBS was added and fluorescence measurements made using a Molecular Devices SpectraMax fluorescence plate reader (excitation at 515 nm, emission at 575 nm, bottom read mode). DiI uptake was also measured in the presence of a 40-fold excess of unlabeled HDL to determine nonspecific (SR-BI-independent) uptake.

Test [3] has as its target T1, SR-BI. The test is described as follows: 125I-HDL binding assay. Also noted: expressed in transfected cells. The method, then:
In a binding assay, ^125I-HDL binding to cells (4° C. or 37° C.) was measured for 2 h in the absence (total activity) or presence (nonspecific activity) of a 40-fold excess of unlabeled HDL. Stably transfected cells were seeded in the wells of 24-well plates (50,000 cells per well) in Ham's F12 medium containing 2 mM L-glutamine, 50 units/mL penicillin per 50 μg/mL streptomycin (medium A) supplemented with 5% (vol/vol) FBS and 0.25 mg/mL G418 (medium B) on day 0, and binding assays were performed on day 2. The cells were washed twice with prewarmed (37° C.) medium A plus 0.5% (wt/vol) BSA (medium C) prior to adding ^125I-HDL. For binding assays performed at 4° C., the assay plates were removed from the incubator, precooled for 30 min on ice in a cold room (4° C.), and then washed twice with cold (4° C.) medium C supplemented with 10 mM Hepes, pH 7.4, prior to adding ^125I-HDL. Specific binding or uptake is the difference between total and nonspecific activities. In assays using small molecule inhibitors (all incubations at 37° C.), immediately prior to incubation with ^125I-HDL, the cells were washed twice with medium A, preincubated with the small molecules for 1 h, and then incubated with radiolabeled lipoproteins as described above, all in medium C plus 0.5% (vol/vol) DMSO in the presence of the indicated concentrations of small molecules.

Like-named read-outs stand apart in the source and are kept apart here.

`COCC(=O)N1CCc2cc(-c3csc(NC(=O)c4cc(OC)cc(OC)c4)n3)ccc21` [Compound 137, 3,5-Dimethoxy-N-(4-(1-(2-methoxyacetyl)indolin-5-yl)thiazol-2-yl)benzamide]: the “binding of HDL to SR-BI” value in test [1] is “increases binding of HDL to the receptor”. The IC50 in test [2] was 315 nM; in test [3] (37° C., 1 h preincubation with compound, read-out: IC50) it was 5.7 nM; in test [3] (range, read-out: measured range of IC50), 0.93 to 6 nM.

Broadly, the IC50 is the concentration needed to halve the response being measured.
